Laboratory results: patent US9951049B2, “Pyrazole linked benzimidazole conjugates and a process for preparation thereof” (Council of Scientific & Industrial Reseach, priority 2014, dated 2018)
Entries after “also recorded” stand apart in the source; their conditions may differ. Read-outs that look alike come from different tables or passages of the source.

Experiments:
[1] = tested on: HOP-62; experiment: NCI SRB screen, HOP-62; settings: Homo sapiens, HOP-62, 48 h, read-out: GI50 values
[2] = tested on: ACHN; experiment: NCI SRB screen, ACHN; settings: Homo sapiens, 48 h, read-out: GI50 values
[3] = tested on: Melanoma cell lines; experiment: NCI SRB screen, Melanoma panel average; settings: Homo sapiens, 48 h, read-out: Log10 GI50 (converted)
[4] = tested on: fifty six human tumor cell lines; experiment: NCI human tumor cell line screen (48 h, SRB), all cell lines; settings: for GI50: Homo sapiens; for anticancer activity (in words): human cancer cell lines of the NCI panel; for Log10 TGI mean graph midpoint (MG_MID): human tumor cell lines, mean over the panel, total growth inhibition
[5] = tested on: Renal cancer cell lines; experiment: NCI SRB screen, Renal panel average; settings: Homo sapiens, 48 h, read-out: Log10 GI50 (converted)
[6] = tested on: SNB-75; experiment: NCI SRB screen, SNB-75; settings: Homo sapiens, SNB-75, 48 h, read-out: GI50 values
[7] = tested on: SNB-19; experiment: NCI SRB screen, SNB-19; settings: Homo sapiens, SNB-19, 48 h, read-out: GI50 values
[8] = tested on: NCI-H226; experiment: NCI SRB screen, NCI-H226; settings: Homo sapiens, NCI-H226, 48 h, read-out: GI50 values
[9] = tested on: KM12; experiment: NCI SRB screen, KM12; settings: Homo sapiens, KM12, 48 h, read-out: GI50 values
[10] = tested on: SK-MEL-5; experiment: NCI SRB screen, SK-MEL-5; settings: Homo sapiens, SK-MEL-5, 48 h, read-out: GI50 values, Melanoma, SK-MEL-5
[11] = tested on: CAKI-1; experiment: NCI SRB screen, CAKI-1; settings: Homo sapiens, CAKI-1, 48 h, read-out: GI50 values
[12] = tested on: MOLT-4; experiment: NCI SRB screen, MOLT-4; settings: Homo sapiens, MOLT-4, 48 h, read-out: GI50 values
[13] = tested on: M14; experiment: NCI SRB screen, M14; settings: Homo sapiens, M14, 48 h, read-out: GI50 values
[14] = tested on: SW-620; experiment: NCI SRB screen, SW-620; settings: Homo sapiens, SW-620, 48 h, read-out: GI50 values
[15] = tested on: MCF7; experiment: NCI SRB screen, MCF7; settings: Homo sapiens, MCF7, 48 h, read-out: GI50 values
[16] = tested on: HS 578T; experiment: NCI SRB screen, HS 578T; settings: Homo sapiens, 48 h, read-out: GI50 values
[17] = tested on: MDA-MB-435; experiment: NCI SRB screen, MDA-MB-435 (Breast panel); settings: Homo sapiens, MDA-MB-435, 48 h, read-out: GI50 values
[18] = tested on: NCI/ADR-RES; experiment: NCI SRB screen, NCI/ADR-RES; settings: Homo sapiens, 48 h, read-out: GI50 values
[19] = tested on: BT-549; experiment: NCI SRB screen, BT-549; settings: Homo sapiens, BT-549, 48 h, read-out: GI50 values
[20] = tested on: Prostate cancer cell lines; experiment: NCI SRB screen, Prostate panel average; settings: Homo sapiens, 48 h, read-out: Log10 GI50 (converted)
[21] = tested on: HCC-2998; experiment: NCI SRB screen, HCC-2998; settings: Homo sapiens, HCC 2998, 48 h, read-out: GI50 values
[22] = tested on: OVCAR-8; experiment: NCI SRB screen, OVCAR-8; settings: Homo sapiens, OVCAR-8, 48 h, read-out: GI50 values
[23] = tested on: Colon cancer cell lines; experiment: NCI SRB screen, Colon panel average; settings: Homo sapiens, 48 h, read-out: Log10 GI50 (converted)
[24] = tested on: UACC-257; experiment: NCI SRB screen, UACC-257; settings: Homo sapiens, UACC-257, 48 h, read-out: GI50 values
[25] = tested on: K-562; experiment: NCI SRB screen, K-562; settings: Homo sapiens, K562, 48 h, read-out: GI50 values
[26] = tested on: SF-539; experiment: NCI SRB screen, SF-539; settings: Homo sapiens, 48 h, read-out: GI50 values
[27] = tested on: HCT-116; experiment: NCI SRB screen, HCT-116; settings: Homo sapiens, HCT-116, 48 h, read-out: GI50 values
[28] = tested on: DU-145; experiment: NCI SRB screen, DU-145; settings: Homo sapiens, DU-145, 48 h, read-out: GI50 values
[29] = tested on: CNS cancer cell lines; experiment: NCI SRB screen, CNS panel average; settings: Homo sapiens, 48 h, read-out: Log10 GI50 (converted)
[30] = tested on: IGROV1; experiment: NCI SRB screen, IGROV1; settings: Homo sapiens, IGROV-1, 48 h, read-out: GI50 values
[31] = tested on: NCI-H23; experiment: NCI SRB screen, NCI-H23; settings: Homo sapiens, NCI-H23, 48 h, read-out: GI50 values
[32] = tested on: UACC-62; experiment: NCI SRB screen, UACC-62; settings: Homo sapiens, UACC-62, 48 h, read-out: GI50 values
[33] = tested on: OVCAR-5; experiment: NCI SRB screen, OVCAR-5; settings: Homo sapiens, OVCAR-5, 48 h, read-out: GI50 values
[34] = read-out: Log10 GI50 mean graph midpoint (MG_MID) (converted)

Row | Compound | GI50 [1] [µM] | GI50 [2] [µM] | GI50 [3] [µM] | GI50 ([4]; read-out: GI50 value range) [µM] | GI50 [4, 34] [µM] | anticancer activity (in words) [4] | Log10 TGI mean graph midpoint (MG_MID) [4] | GI50 [5] [µM] | GI50 [6] [µM] | GI50 [7] [µM] | GI50 [8] [µM] | GI50 [9] [µM] | GI50 [11] [µM] | GI50 [12] [µM] | GI50 [13] [µM] | GI50 [14] [µM] | GI50 [15] [µM] | GI50 [16] [µM] | GI50 [17] [µM] | GI50 [18] [µM] | other results
1 | c1ccc2[nH]c(-c3cc(-c4ccc5c(c4)OCO5)n[nH]3)nc2c1 [6g, 2-(3-(benzo[d][1,3]dioxol-5-yl)-1H-pyrazol-5-yl)-1H-benzo[d]imidazole] | 8.46 | 4.33 | 3.02 | 0.34 to 10 | 3.72 | significant anticancer activity; also recorded: pronounced activities | −4.75 | 2.04 | 1.01 | 5.92 | 4.42 | 1.75 | 2.74 | 2.68 | 2.19 | 5.87 | 3.78 | 3.8 | 3.57 | 4.08 | GI50 [10]: 1.53 µM; GI50 [19]: 2.12 µM; GI50 [20]: 5.13 µM; GI50 [21]: 3.74 µM; GI50 [22]: 3.97 µM; GI50 [23]: 4.07 µM; GI50 [24]: 6 µM; GI50 [25]: 3.83 µM; GI50 [26]: 2.71 µM; GI50 [27]: 6.36 µM; GI50 [28]: 7.27 µM; GI50 [29]: 4.27 µM; GI50 [30]: 3.66 µM; GI50 [31]: 4.47 µM; GI50 [32]: 3.08 µM; GI50 [33]: 1.49 µM
2 | COc1ccc2[nH]c(-c3cc(-c4cc(OC)c(OC)c(OC)c4)n[nH]3)nc2c1 [9f, 5-methoxy-2-(3-(3,4,5-trimethoxyphenyl)-1H-pyrazol-5-yl)-1H-benzo[d]imidazole] | 2.02 | 2.63 | 1.32 | 0.34 to 10 | 1.7 | significant anticancer activity; also recorded: pronounced activities | −5.17 | 2.24 | 2.23 | 2.98 | 0.46 | 1.7 | 1.79 | 0.73 | 1.66 | 2.89 | 2.15 | 2.89 | 0.38 | 2.91 | potency compared with compounds 6f, 6g, 7g and 10f ([4]; against all the cell lines tested): more potent; growth inhibitory activity (in words) ([4]; against breast cancer and leukemia cell lines): potential growth inhibitory activity; GI50 [19]: 0.89 µM; GI50 [20]: 1.55 µM; GI50 [21]: 3.03 µM; GI50 [22]: 1.15 µM; GI50 [23]: 2.29 µM; GI50 [24]: 1.67 µM; GI50 [25]: 2.01 µM; GI50 [26]: 2.42 µM; GI50 [27]: 1.81 µM; GI50 [28]: 2.29 µM; GI50 [29]: 2.45 µM; GI50 [30]: 1.9 µM; GI50 [31]: 1.34 µM; GI50 [32]: 1.12 µM; GI50 [33]: 3.03 µM
